Results on 3 molecules are retold here after patent US20100331269A1, “TRITERPENES DERIVATIVES AND USES THEREOF AS ANTITUMOR AGENTS OR ANTI-INFLAMMATORY AGENTS” (priority 2006, published 2010).

In one test the test system is DLD-1 cells. As to the kind of experiment: Cytotoxicity, Hoechst DNA assay, DLD-1. It is filed as cell-based, human. The following applies: ± SD. The essentials:
(§1)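 Cells grown at 37 °C, 5% CO2, in MEM with 10% FBS. Compound cytotoxicity was measured by Hoechst DNA staining. Activity is expressed as IC50, the concentration inhibiting 50% of cell growth.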

In a further test the test system is B16-F1 cells. As to the kind of experiment: Cytotoxicity, Hoechst DNA assay, B16-F1. It is filed as cell-based, mouse. Particulars: ± SD. In short, it runs like this: as §1
Test [1] relates to WS-1 human normal skin fibroblasts. In words: Cytotoxicity, resazurin metabolism assay, WS-1. It is filed as cell-based. Particulars: 48 h, mean ± SD. The essentials:
(§2)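 Cells plated at 5×10^3/well, adhered 16 h, then exposed to increasing compound concentrations (DMSO) for 48 h. Viability by resazurin reduction, fluorescence ex 530/em 590 nm, blank-subtracted versus control wells; IC50 as mean±SD from three experiments in triplicate.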

In test [2] the test system is DLD-1 human colorectal adenocarcinoma cells. As to the kind of experiment: Cytotoxicity, resazurin metabolism assay, DLD-1. It is filed as cell-based. The following applies: 48 h, mean ± SD. In short, it runs like this:
as §2

Test [3] deals with Walker 256 murine carcinosarcoma. Particulars: cited from earlier work.
The subject of test [4] is L1210 murine lymphocytic leukemia. The following applies: 200 mg/kg; cited from earlier work.
In test [5] the test system is A-549 human lung carcinoma cells. As to the kind of experiment: Cytotoxicity, resazurin metabolism assay, A-549. It is filed as cell-based. Particulars: 48 h, mean ± SD. In short, it runs like this:
as §2

The subject of another test is A-549 cells. As to the kind of experiment: Cytotoxicity, Hoechst DNA assay, A-549. It is filed as cell-based, human. The following applies: ± SD. The essentials: as §1
In the next test the test system is Lewis lung carcinoma. In words: In vivo antitumoral activity against Lewis lung cancer-bearing mice. Details: species or system C57BL/6 mouse. The following applies: day 13. As for the experimental part: Cell lines and mice preparation: The Lewis lung carcinoma cell lines (#CRL-1642, lot # 4372266, ATCC) and the C57BL/6 mouse strain (Charles River Inc., St-Constant, Qc) were used. Cells were grown to 90% confluence in complete DMEM medium containing Earle's salts and L-glutamine (Mediatech Cellgro, Va.), 10% foetal bovine serum (Hyclone), vitamins (1×), penicillin (100 I.U./mL) and streptomycin (100 μg/mL), essential amino acids (1×) and sodium pyruvate (1×) (Mediatech Cellgro, Va.). Cells were then harvested with up and down only. Cells were counted using a hemacytometer and resuspended in DMEM medium without SVF. 100 μL of a solution containing 1×10^7 cells/mL was inoculated subcutaneously in the right flank of each 6 weeks old mouse on day zero.
The experimental mice were weighed daily.
Data analysis: In vivo antitumor activity was evaluated according to the parameters as follows (Miot-Noirault, E. et al. Invest. New Drugs 2004, 22, 369-378):
(a) Calculated tumour weight (CTW): The CTW of each tumour was estimated from two-dimensional measurements performed once a day with a slide calliper, according to the formula: CTW (mg)=(L×W^2)/2 with L=length in mm and W=width in mm. Differences in CTW between treated and control groups (DMSO) were analyzed for significance using the U Wilcoxon-Mann-Whitney test and Student t-test. Values of p<0.05 were considered statistically significant.
(b) Treated/Control value (T/C) and Tumour Growth Inhibition (TGI):The T/C was calculated as the ratio of the mean CTW of TW of drug-treated mice versus controls: T/C=(CTW of the drug-treated group on Day X/CTW of the control group on Day X)×100. TGI is 100−(T/C) value.

The test system of test [6] is B16-F1 mouse melanoma cells. In words: Cytotoxicity, resazurin metabolism assay, B16-F1. It is filed as cell-based. The following applies: 48 h, mean ± SD. The essentials:
as §2

Another test concerns WS-1 cells. In words: Cytotoxicity, Hoechst DNA assay, WS-1. It is filed as cell-based, human. The following applies: ± SD. In short, it runs like this:
as §1

Test [7] has as its system NO production in lipopolysaccharide (LPS) stimulated cells. Particulars: read-out: IC50 (NO production); cells stimulated with 100 ug/ml LPS, 24 h, Griess reaction.
Method: Exponentially growing cells were plated in 24-well microplates (BD Falcon) at a density of 2×10^5 cells per well in 400 μl of culture medium and were allowed to adhere overnight. Cells were then treated or not with positive control N(G)-nitro-L-arginine methyl ester (L-NAME), or increasing concentrations of methanol extracts dissolved in the appropriate solvents, and incubated at 37° C., 5% CO2 for 24 h. The final concentration of solvent in the culture medium was maintained at 0.5% (volume/volume) to avoid solvent toxicity. Cells were then stimulated with 100 ug/ml lipopolysaccharide (LPS). After 24 h, cell-free supernatants were collected and stored at −80° C. until NO determination using the Griess reaction (Green et al. 1990) with minor modifications. Briefly, 100 μl aliquots of cell supernatants were incubated with 50 μl of 1% sulfanilamide and 50 μl of 0.1% N-1-naphtylethylenediamine dihydrochloride in 2.5% H3PO4 at room temperature for 20 min. Absorbance at 540 nm was then measured using an automated 96-well Varioskan Ascent™ plate reader (Thermo Electron) and the presence of nitrite was quantified by comparison with an NaNO2 standard curve.
A further test has as its system U-251 human glioma cells. In words: Cytotoxicity, resazurin metabolism assay, U-251. It is filed as cell-based. Particulars: mean ± SD. The source says:
(§3) Human lung carcinoma (A-549), human colon adenocarcinoma (DLD-1), human normal fibroblasts (WS1), mice melanoma (B16-F1), Human glioma (U-251), Human hepatocellular carcinoma (HEP G2), Human prostate adenocarcinoma (PC-3), Human ovary teratocarcinoma metastatic (PA-1), Human breast adenocarcinona metastatic (MDA-MB-231), Human breast adenocarcinoma (MCF-7) and Human malignant melanoma (SK-MEL-2) cell lines were obtained from the American Type Culture Collection (ATCC). All cell lines were cultured in minimum essential medium containing Earle's salts and L-glutamine (Mediatech Cellgro, Va.), to which was added 10% fetal bovine serum (Hyclone), vitamins (1×), penicillin (100 I.U./mL) and streptomycin (100 μg/mL), essential amino acids (1×) and sodium pyruvate (1×) (Mediatech Cellgro, Va.). Cells were kept at 37° C. in a humidified environment containing 5% CO2.
(§4) Exponentially growing cells were plated in 96-well microplates (Costar, Corning Inc.) at a density of 5×10^3 cells per well in 100 μL of culture medium and were allowed to adhere for 16 hours before treatment. Increasing concentrations of each compound in DMSO (Sigma-Aldrich) were then added (100 μL per well) and the cells were incubated for 48 h. […] Cytotoxicity was assessed using resazurin (O'Brien, J. et al., Eur. J. Biochem. 2000, 267, 5421-5426) on an automated 96-well Fluoroskan Ascent F1™ plate reader (Labsystems) using excitation and emission wavelengths of 530 nm and 590 nm, respectively. Fluorescence was proportional to the cellular metabolic activity in each well. Survival percentage was defined as the fluorescence in experimental wells compared to that in control wells after subtraction of blank values. Each experiment was carried out three times in triplicata. IC50 results were expressed as mean±standard deviation.
(§5) Compounds presented in Table 5 below were also tested in the following tumour cell lines: U-251 (Human glioma), HEP G2 (Human hepatocellular carcinoma), PC-3 (Human prostate adenocarcinoma), PA-1 (Human ovary teratocarcinoma metastatic), MDA-MB-231 (Human breast adenocarcinona metastatic), MCF-7 (Human breast adenocarcinoma) and SK-MEL-2 (Human malignant melanoma).

For test [8], the system named is PC-3 human prostate adenocarcinoma cells. As to the kind of experiment: Cytotoxicity, resazurin metabolism assay, PC-3. It is filed as cell-based. The following applies: mean ± SD.
Source text: as §3, §4, §5

The test system of test [9] is SK-Mel-2 human melanoma cells. As to the kind of experiment: Cytotoxicity, resazurin metabolism assay, SK-Mel-2. It is filed as cell-based. Particulars: mean ± SD.
Source text: as §3, §4, §5

Test [10] relates to PA-1 human ovary teratocarcinoma cells. As to the kind of experiment: Cytotoxicity, resazurin metabolism assay, PA-1. It is filed as cell-based. The following applies: mean ± SD.
Source text: as §3, §4, §5

The test system of test [11] is Hep G2 human hepatocellular carcinoma cells. In words: Cytotoxicity, resazurin metabolism assay, Hep G2. It is filed as cell-based. Particulars: mean ± SD.
Source text: as §3, §4, §5

For test [12], the system named is MDA-MB-231 human breast adenocarcinoma cells. As to the kind of experiment: Cytotoxicity, resazurin metabolism assay, MDA-MB-231. The following applies: mean ± SD. It is filed as cell-based.
Source text: as §3, §4, §5

Test [13] deals with MCF-7 human breast adenocarcinoma cells. As to the kind of experiment: Cytotoxicity, resazurin metabolism assay, MCF-7. It is filed as cell-based. Particulars: mean ± SD.
Source text: as §3, §4, §5

With `C=C(C)[C@@H]1CC[C@]2(C(=O)O)CC[C@]3(C)[C@H](CC[C@@H]4[C@@]5(C)CC[C@H](O)C(C)(C)[C@@H]5CC[C@]43C)[C@@H]12` [Compound 3, Betulinic acid, reference compound], the IC50 with DLD-1 cells turned out to be 12 ± 1 µM; in the test with B16-F1 cells it was 18 ± 2 µM; in test [1], 12 ± 1 µM; in [2] it was 15 ± 0.3 µM; in test [5], 10.3 ± 0.4 µM; in the test with A-549 cells it was 8 ± 1 µM. In addition, the IC50 in test [6] came to 16.1 ± 0.5 µM; in the test with WS-1 cells, 14 ± 2 µM. Further, the “Activity in the Walker 256 model (subsequent report)” value in test [3] (400 mg/kg) was “inactive”. In addition, in test [3] (dose levels of 300 and 500 mg/kg body weight), the “Activity against the Walker 256 murine carcinosarcoma tumor system” value is listed as “dose-dependent activity”. In addition, the “Activity in the L1210 murine lymphocytic leukemia model” value in test [4] is “inactive”. For the same molecule, the “CTW (calculated tumour weight)” value was 294 ± 69 mg in the test on Lewis lung carcinoma (50 mg/kg IP every 3-4 days), 264 ± 58 mg in the test on Lewis lung carcinoma (100 mg/kg IP every 3-4 days) and 265 ± 58 mg in the test with Lewis lung carcinoma (200 mg/kg IP every 3-4 days). The “T/C (Treated/Control)” value in the test with Lewis lung carcinoma (50 mg/kg IP) came out at 90%; in the test with Lewis lung carcinoma (100 mg/kg IP), 81%; in the test on Lewis lung carcinoma (200 mg/kg IP) it was 81%. For the same molecule, the “TGI (Tumour Growth Inhibition)” value was 10% with Lewis lung carcinoma (50 mg/kg IP), 19% with Lewis lung carcinoma (100 mg/kg IP) and 19% with Lewis lung carcinoma (200 mg/kg IP).
With `C=C(C)C1CCC2(COC3OCC(O)C(O)C3O)CCC3(C)C(CCC4C5(C)CCC(O)C(C)(C)C5CCC43C)C12` [Compound 17, 28-O-α-D-Arabinopyranoside of Betulin], the IC50 was > 194 µM with DLD-1 cells; > 194 µM in the test on B16-F1 cells; > 175 µM in [1]; > 175 µM in test [2]; 25 ± 1 µM in [7]; > 175 µM in [5]. In addition, the IC50 in the test on A-549 cells was > 194 µM; in test [6] it was > 175 µM; with WS-1 cells, > 194 µM.
Take `C=C(C)[C@@H]1CC[C@]2(C(=O)O)CC[C@]3(C)[C@H](CC[C@@H]4[C@@]5(C)CC[C@H](O[C@H]6OC[C@@H](O)[C@@H](O)[C@@H]6O)C(C)(C)[C@@H]5CC[C@]43C)[C@@H]12` [Compound 23, 3-O-α-D-Arabinopyranoside of Betulinic Acid]: the IC50 in the test with DLD-1 cells was 10 ± 1 µM; in the test with U-251 human glioma cells it was 70 ± 10 µM; in the test with B16-F1 cells it was 10.2 ± 0.6 µM; in [1], 47 ± 5 µM; in test [8], 110 ± 10 µM; in [9], 62 ± 7 µM. Besides, the IC50 in test [2] was determined as 17 ± 3 µM; in [10], 20 ± 2 µM; in test [11], 66 ± 9 µM; in [12] it was 57 ± 6 µM; in test [5] it was 10 ± 2 µM; in the test on A-549 cells, 5.7 ± 0.8 µM. Also, the IC50 in test [13] is 45 ± 9 µM; in test [6], 11 ± 1 µM; in the test with WS-1 cells, 32 ± 2 µM.
